pEC50: −log10 of the molar value. Converted amounts (≈) assume the structure as drawn.
What was measured:
[1] = system: Acinetobacter baumannii; assay: Antibacterial activity against Acinetobacter baumannii ATCC19606 assessed as bacterial growth inhibition incubated for 18 to 20 hrs by microbroth dilution method; format: functional; conditions: time 18-20 hrs
[2] = Cytotoxicity against GFP fused human MT4 cells cultured under serum free condition for 24 hrs by CellTiter-Glo assay; format: toxicity, cell-based; conditions: GFP fused MT4 cells
[3] = Inhibition of wildtype Acinetobacter baumannii MsbA preincubated for 30 mins followed by ATP addition and measured after 1 hrs by Transcreener ADP2 F1 assay
[4] = Plasma protein binding in C57BL/6 mouse at 1000 to 100000 ng/ml by equilibrium dialysis based LC-MS/MS analysis; format: ADME, cell-free; conditions: dose 1000-100000 ng/ml, read-out: PPB (converted)
[5] = system: Acinetobacter baumannii; assay: Antibacterial activity against Acinetobacter baumannii ATCC19606 incubated for 18 to 20 hrs in presence of 10% human serum by microbroth dilution method; format: functional; conditions: time 18-20 hrs
[6] = system: Acinetobacter baumannii; assay: Selectivity ratio of MIC95 for antibacterial activity against Acinetobacter baumannii ATCC19606 in the presence of 10% human serum to MIC95 for antibacterial activity against Acinetobacter baumannii ATCC19606; format: functional
[7] = AUC (0 to infinity) in male C57BL/6 mouse at 300 mg/kg, sc administered once in a day and measured after 24 hrs by LC-MS/MS analysis; format: ADME, organism-based; conditions: mouse, in vivo, sc, 300 mg/kg, 24 h
[8] = AUC (0 to infinity) in male C57BL/6 mouse at 300 mg/kg, sc administered 3 times a day with 3 hrs interval and measured after 24 hrs by LC-MS/MS analysis; format: ADME, organism-based; conditions: mouse, in vivo, sc, 300 mg/kg, 24 h
[9] = Cmax in male C57BL/6 mouse at 300 mg/kg, sc administered once in a day and measured after 24 hrs by LC-MS/MS analysis; format: ADME, organism-based; conditions: in vivo
[10] = Cmax in male C57BL/6 mouse at 300 mg/kg, sc administered 3 times a day with 3 hrs interval and measured after 24 hrs by LC-MS/MS analysis; format: ADME, organism-based; conditions: in vivo
[11] = Plasma protein binding in human at 1000 to 100000 ng/ml by equilibrium dialysis based LC-MS/MS analysis; format: ADME, cell-free; conditions: dose 1000-100000 ng/ml, read-out: PPB (converted)
[12] = Plasma protein binding in dog at 1000 to 100000 ng/ml by equilibrium dialysis based LC-MS/MS analysis; format: ADME, cell-free, Canis lupus familiaris; conditions: dose 1000-100000 ng/ml, read-out: PPB (converted)
[13] = system: Acinetobacter baumannii; assay: (§1) Antibacterial activity against Acinetobacter baumannii CLB21655 infected in female DBA mouse blood stream infection model assessed as fold change in colony forming units in spleen at 300 mg/kg, sc pre-infected with bacteria for 0.5 hrs followed by once daily compound administration and measured after 8 hrs relative to control; format: functional
[14] = system: Acinetobacter baumannii; assay: as §1, with “lung” for “blood stream”, “lung” for “spleen”, “2” for “0.5”, “thrice” for “once”, “administration with 6 hrs interval” for “administration”, “24” for “8”; format: functional
[15] = system: Acinetobacter baumannii; assay: Antibacterial activity against Acinetobacter baumannii ATCC19606 incubated for 18 to 20 hrs in presence of 50% mouse serum by microbroth dilution method; format: functional; conditions: time 18-20 hrs
[16] = system: Acinetobacter baumannii; assay: as §1, with “reduction” for “fold change”, “bacterial burden” for “colony forming units”, “(reference value: 6.5 log10CFU/g)” for “relative to control”; format: functional
[17] = system: Acinetobacter baumannii; assay: (§2) Antibacterial activity against Acinetobacter baumannii CLB21655 infected in female DBA mouse lung infection model assessed as reduction in bacterial burden in lung at 300 mg/kg, sc pre-infected with bacteria for 2 hrs followed by thrice daily compound administration with 6 hrs interval and measured after 24 hrs (reference value: 6.3 log10CFU/g); format: functional
[18] = system: Acinetobacter baumannii; assay: (§3) Antibacterial activity against Acinetobacter baumannii CLB21655 infected in female DBA mouse lung infection model assessed as fold change in colony forming units in lung at 640 mg/kg, sc pre-infected with bacteria for 2 hrs followed by compound administration and measured after 24 hrs in presence of avibactam relative to control; format: functional
[19] = system: Acinetobacter baumannii; assay: Antibacterial activity against Acinetobacter baumannii CLB21655 infected in female DBA mouse lung infection model assessed as reduction in bacterial burden in lung at 640 mg/kg, sc pre-infected with bacteria for 2 hrs followed by compound administration and measured after 24 hrs in presence of avibactam (reference value: 9.7 log10CFU/g); format: functional
[20] = system: Acinetobacter baumannii; assay: (§4) Antibacterial activity against Acinetobacter baumannii CLB21655 infected in female DBA mouse blood stream infection model assessed as reduction in bacterial burden in spleen at 10 mg/kg, sc pre-infected with bacteria for 0.5 hrs followed by once daily compound administration and measured after 8 hrs (reference value: 5.85 log10CFU/g); format: functional
[21] = system: Acinetobacter baumannii; assay: as §1, with “10” for “300”; format: functional
[22] = system: Acinetobacter baumannii; assay: as §1, with “10” for “300”, “thrice” for “once”; format: functional
[23] = system: Acinetobacter baumannii; assay: as §4, with “thrice” for “once”, “6.3” for “5.85”; format: functional
[24] = system: Acinetobacter baumannii; assay: as §3, with “10” for “640”, “hrs” for “hrs in presence of avibactam”; format: functional
[25] = system: Acinetobacter baumannii; assay: as §2, with “10” for “300”, “by” for “by thrice daily”, “administration” for “administration with 6 hrs interval”; format: functional

With O=C(O)c1cc(CN2CC(Oc3ccc(NS(=O)(=O)c4cnn(-c5ccc(F)cc5)c4)c(C(=O)O)c3)C2)ccc1NS(=O)(=O)c1cnn(-c2ccc(F)cc2)c1 the MIC95 [1] was 0.277 µM (≈ 0.223 µg/mL), the EC50 at 24 h [2] was over 42000 nM and the pEC50 [3] was 7.16. It also gave a fraction unbound [4] of 0.002, an MIC95 [5] of 6.25 µM and a Selectivity ratio [6] of 23. For the same compound, the AUC [7] was 2270 µM·h, the AUC [8] was 22200 µM·h and the Cmax [9] was 662 µM. It also gave a Cmax [10] of 626 µM, a fraction unbound [11] of 0.006 and a fraction unbound [12] of 0.004. For the same compound, the “fold change (FC)” value [13] was 3.2, the “fold change (FC)” value [14] was 1.9 and the MIC95 [15] was 50 µM. The Activity [16] was 3.3 log10CFU/g and the Activity [17] was 4.4 log10CFU/g.

In the case of CC(C)(O/N=C(\C(=O)N[C@@H]1C(=O)N2C(C(=O)[O-])=C(C[n+]3ccccc3)CS[C@H]12)c1csc(N)n1)C(=O)O [CEFTAZIDIME], the “fold change (FC)” value [18] was 2.1 and the Activity [19] was 7.6 log10CFU/g.

With CN(C)c1cc(NC(=O)CNC(C)(C)C)c(O)c2c1C[C@H]1C[C@H]3[C@H](N(C)C)C(O)=C(C(N)=O)C(=O)[C@@]3(O)C(O)=C1C2=O [TIGECYCLINE] the Activity [20] was 2.85 log10CFU/g, the “fold change (FC)” value [21] was 3 and the “fold change (FC)” value [22] was 2.8. For the same compound, the Activity [23] was 3.5 log10CFU/g, the “fold change (FC)” value [24] was 2.8 and the Activity [25] was 3.5 log10CFU/g.

— ChEMBL document CHEMBL5584343, “Cerastecin Inhibition of the Lipooligosaccharide Transporter MsbA to Combat Acinetobacter baumannii: From Screening Impurity to In Vivo Efficacy” (J Med Chem, 2024)
